Where two headings read alike, the source gives them in different places.
What was measured:
[1] = sodium salt of stereoisomer, 5% sucrose solution as control, optical purity 99% or more, cited from earlier work
[2] = cited from earlier work; for intensity of sweet taste: Nakamura et al., hydrochloride salts
[3] = Hygroscopic property test (25° C., humidity 95%); assay type: physicochemical; settings: for absorbed water: after 24 hours, 95% high humidity condition; for Increase percentage (absorbed water amount) / Weight: 25° C., humidity 95%; for water absorption: high humidity condition
Experimental: The crystals of free (2R,4R)-monatin (sample 1) prepared in Comparative Example 1, crystal of the potassium salt of (2R,4R)-monatin monohydrate (sample 2), and an amorphous solid of the potassium salt of (2R,4R)-monatin (sample 3) separately prepared were weighed out in an amount of 0.5 g, respectively, each was placed in a petri dish, and stored (retained) under a high humidity condition of 95% and a temperature of 25° C. After retention times of 1, 3, 6 and 24 hours, the weight of each sample was measured. The measuring conditions were as follows.
Apparatus name: HIFLEX TH401 supplied from ETAC.
Storing condition: 25° C., humidity of 95%.
Sample container: diameter of 25 cm, glass petri dish.

[4] = Sweetness intensity of crystals of free (2R,4R)-monatin compared with an aqueous solution of 5% sucrose
Experimental: It was identified that the sweetness intensity (degree of sweetness) of the present crystals of free (2R,4R)-monatin is about 2500 times that of an aqueous solution of 5% sucrose. This sweetness intensity is nearly equivalent to the sweetness intensity (about 2700 times) of the crystals of the sodium salt of (2R,4R)-monatin evaluated by the inventors in Amino, Y. et al., WO 2003045914 A1.
1.05 mg of crystals of free (2R,4R)-monatin described in the above Comparative Example 1 were dissolved in 20 ml of ion-exchanged water. A solution was prepared by diluting this solution 2.5 times. The sweetness of this aqueous solution of the free compound of (2R,4R)-monatin was compared with that of an aqueous solution of 5% sucrose separately prepared.

Increase percentage (absorbed water amount) ([3]; retention time 0 hrs)	Weight ([3]; retention time 0 hrs)	Increase percentage (absorbed water amount) ([3]; retention time 1 hr)	Weight ([3]; retention time 1 hr)	Increase percentage (absorbed water amount) ([3]; retention time 3 hrs)	Weight ([3]; retention time 3 hrs)	Increase percentage (absorbed water amount) ([3]; retention time 6 hrs)	Weight ([3]; retention time 6 hrs)	Increase percentage (absorbed water amount) ([3]; retention time 24 hrs)	Weight ([3]; retention time 24 hrs)	Molecule	degree of sweetness [1]	other results
–	–	–	–	–	–	–	–	–	–	N[C@H](C[C@@](O)(Cc1c[nH]c2ccccc12)C(=O)O)C(=O)O [(2R,4S)-monatin substance, (2R,4S)-monatin]	1300 times	–
–	–	–	–	–	–	–	–	–	–	N[C@@H](C[C@@](O)(Cc1c[nH]c2ccccc12)C(=O)O)C(=O)O [(2S,4S)-monatin, (2S,4S)-2-amino-4-carboxy-4-hydroxy-5-(3-indolyl)-pentanoic acid]	–	sweetness intensity ([2]; times that of sucrose, Vleggaar et al.): 800 to 1400 times
–	–	–	–	–	–	–	–	–	–	N[C@@H](C[C@](O)(Cc1c[nH]c2ccccc12)C(=O)O)C(=O)O [synthetic (2S,4R)-monatin, (2S,4R)-monatin]	–	intensity of sweet taste [2]: slightly sweet taste; intensity of sweet taste ([2]; listed as hydrochloride salt of (2S,4R)-monatin): almost no sweetness
0.00%	0.5014 g	8.82%	0.5456 g	8.58%	0.5444 g	7.30%	0.5383 g	7.30%	0.5380 g	potassium salt of (2R,4R)-monatin [Sample 3]	–	absorbed water [3]: 7.3 wt. %
–	–	–	–	–	–	–	–	–	–	N[C@@H](C[C@](O)(Cc1c[nH]c2ccccc12)C(=O)O)C(=O)O [(2S,4R)-monatin substance, (2S,4R)-monatin]	300 times	–
–	–	–	–	–	–	–	–	–	–	NC(CC(O)(Cc1c[nH]c2ccccc12)C(=O)O)C(=O)O [synthetic (2S,4S)-monatin, (2S,4S)-monatin]	–	intensity of sweet taste [2]: equivalent to that of the natural specimen of monatin
0.00%	0.5000 g	0.00%	0.5000 g	0.00%	0.4996 g	0.00%	0.5001 g	0.00%	0.4997 g	N[C@H](CC(O)(Cc1c[nH]c2ccccc12)C(=O)O)C(=O)O (stereo partly drawn) [Sample 1, (2R,4R)-monatin]	–	water absorption ([3]; listed as crystal of free (2R,4R)-monatin): scarcely absorbs water; water absorption ([3]; listed as crystals of free (2R,4R)-monatin): no water absorption; sweetness compared with aqueous solution of 5% sucrose ([4]; 1.05 mg in 20 ml ion-exchanged water, diluted 2.5 times): nearly equivalent sweetness intensity; sweetness intensity (degree of sweetness) ([4]; relative to an aqueous solution of 5% sucrose): about 2500 times
–	–	–	–	–	–	–	–	–	–	NC(CC(O)(Cc1c[nH]c2ccccc12)C(=O)O)C(=O)O [(2S,4S)-monatin substance, (2S,4S)-monatin]	50 times	–
–	–	–	–	–	–	–	–	–	–	N[C@H](C[C@](O)(Cc1c[nH]c2ccccc12)C(=O)O)C(=O)O [(2R,4R)-monatin substance, (2R,4R)-monatin]	2700 times	degree of sweetness ([1]; listed as (2R,4R)): 2700 times; degree of sweetness ([1]; listed as crystals of the sodium salt of (2R,4R)-monatin): about 2700 times
0.00%	0.5007 g	1.08%	0.5061 g	3.71%	0.5193 g	4.89%	0.5252 g	5.39%	0.5277 g	potassium salt of (2R,4R)-monatin monohydrate [Sample 2]	–	absorbed water [3]: 5.4 wt. %
